The results in this text go back to US6177592A, “Compounds” (priority 1997, dated 2001).

One experiment concerns NIH 3T3/E7-2. In words: Colony formation of HPV16 E7-transformed NIH 3T3/E7-2 cells. It counts as cell-based. The procedure:
(1) Transformation to Escherichia coli HB101 was conducted by control plasmid pcD2-Y expressing G418-resisting gene [Mol. Cell. Biol., volume 7, pages 2745-2752 (1987)] and plasmid pcD2-16E7 which was capable of expressing both HPV 16 type E7 and G418-resisting gene [Jpn. J. Cancer Res., volume 82, pages 1340-1343 (1991)], then incubation was conducted in an L-broth medium and plasmid was extracted from the collected cells and purified by a cesium chloride density gradient ultracentrifugation to give vector plasmid for introduction of gene.
The purified plasmid (10 μg) was introduced into NIH 3T3 cells using a cationic liposome (TransIT LT-1, manufactured by Takara Shuzo), the cells were selected at 37° C. under the condition of 5% CO2 for two weeks in a Dulbecco-modified Eagle's medium containing 10% calf serum which contained 0.4 mg/ml of G418 (Gibco) and the resulting colonies were cloned to establish each nine strains of NIH 3T3 cells into which control vector was introdcd and NIH 3T3 cells which was cancerated with HPV 16 type E7.
The cells strains into which E7 was introduced were named NIH 3T3/E7-1, NIH 3T3/E7-2, NIH 3T3/E7-3, NIH 3T3/E7-4, NIH 3T3/E7-5, NIH 3T3/E7-6, NIH 3T3/E7-7, NIH 3T3/E7-8 and NIH 3T3/E7-9. […]
A part of the suspension was taken out and cell density was counted by a Neubauer's hemocytometer. […]

In another experiment the target is T1, topoisomerase II (Homo sapiens, UniProt P11388).
T1 construct: purchased TopoGEN
In words: Topoisomerase II inhibition (pBR322 relaxation). It counts as biochemical. Also noted: key to Inhibiting Activity: -: a complete change from a supercoiled type to a relaxation type; +: a change in a medium degree; ++: most of supercoiled type remained; +++: there was no decrease in a supercoiled type at all. The protocol:
(1) One μl of 0.25 μg/μl pBR322 DNA (manufactured by Takara Shuzo) was added to a mixture of 2 μl of topoisomerase II (manufactured by TopoGEN, 2 units/μl), 2 μl of a buffer with a ten-fold diluted concentration [0.5M Tris-HCl (pH 8.0), 1.2M KCl, 0.1M MgCl2, 5 mM adenosine triphosphate and 5 mM dithiothreitol], 2 μl of 0.1% bovine serum albumin (manufactured by Takara Shuzo), 11 μl of distilled water and 2 μl of distilled water (a control) or a sample (50, 100, 200, 500, 1000 or 2500 μM of GM) and made to react at 37° C. After the reaction for 30 minutes, the reaction was stopped by adding 2 μl aqueous solution of 1% sodium dodecylsulfate, 50% glycerol and 0.02% Bromophenol Blue.
The above reaction solution (20 μl) was applied to 1% agarose gel prepared from agarose L03 (manufactured by Takara Shuzo) and TAE buffer [40 mM Tris, 5 mM sodium acetate and 1 mM disodium ethylenediaminetetraacetate (EDTA); adjusted to pH 7.8 with acetic acid] and electrophoresis was conducted in the TAE buffer. After the electrophoresis, the gel was dipped in an aqueous solution of 1 μg/ml ethidium bromide and irradiated with ultraviolet ray to observe the electrophoretic pattern of DNA.

Another experiment has as its system antigen-specific IgE. In words: Antigen-specific IgE production (48-hour rat PCA). The class given is in vivo, rat (Wistar). The settings on record: for IgE Titer: three days, control 64. The procedure:
Yale rats of Wistar strain of five weeks age (one group consisting of five rats) (Nippon SLC) were sensitized by an intraperitoneal injection of 100 μl of 0.01% solution of egg white albumin (Sigma) in an aqueous physiological saline solution and 100 μl of Alum (trade name: Imject Alum; Pierce) and, after 14 days, blood was collected from abdominal artery.
The collected blood was centrifuged (at 2000 rpm for five minutes), plasma was separated and the amount of antigen-specific IgE was measured by a 48-hour rat passive cutaneous anaphylaxis (PCA) reaction.
Thus, serum was diluted with a physiological saline solution in a successively doubling manner ranging from 1/4 to 1/64 and each 0.1 ml thereof was subcutaneously injected to hair-clipped back of male rats of Wistar strain of seven weeks age. After 48 hours from the subcutaneous injection, 1 ml of a mixture of 0.05% egg white albumin and 0.5% Evans Blue (manufactured by Nacalai Tesque) was injected from tail vein. After 30 minutes from the injection from the tail vein, rats were subjected to decapitation and to exanguinated death, blue spots appeared on the back were observed, the spots with a diameter of 5 mm or more were judged to be positive and the highest dilution was adopted as an IgE titer.
In the GM-administered groups, 3 mg/kg or 30 mg/kg of GM was intraperitoneally administered once daily for three days from the antigen-sensitized day while, in the control group, distilled water was intraperitoneally administered by the same manner.

T1 sequence (P11388 whole entry): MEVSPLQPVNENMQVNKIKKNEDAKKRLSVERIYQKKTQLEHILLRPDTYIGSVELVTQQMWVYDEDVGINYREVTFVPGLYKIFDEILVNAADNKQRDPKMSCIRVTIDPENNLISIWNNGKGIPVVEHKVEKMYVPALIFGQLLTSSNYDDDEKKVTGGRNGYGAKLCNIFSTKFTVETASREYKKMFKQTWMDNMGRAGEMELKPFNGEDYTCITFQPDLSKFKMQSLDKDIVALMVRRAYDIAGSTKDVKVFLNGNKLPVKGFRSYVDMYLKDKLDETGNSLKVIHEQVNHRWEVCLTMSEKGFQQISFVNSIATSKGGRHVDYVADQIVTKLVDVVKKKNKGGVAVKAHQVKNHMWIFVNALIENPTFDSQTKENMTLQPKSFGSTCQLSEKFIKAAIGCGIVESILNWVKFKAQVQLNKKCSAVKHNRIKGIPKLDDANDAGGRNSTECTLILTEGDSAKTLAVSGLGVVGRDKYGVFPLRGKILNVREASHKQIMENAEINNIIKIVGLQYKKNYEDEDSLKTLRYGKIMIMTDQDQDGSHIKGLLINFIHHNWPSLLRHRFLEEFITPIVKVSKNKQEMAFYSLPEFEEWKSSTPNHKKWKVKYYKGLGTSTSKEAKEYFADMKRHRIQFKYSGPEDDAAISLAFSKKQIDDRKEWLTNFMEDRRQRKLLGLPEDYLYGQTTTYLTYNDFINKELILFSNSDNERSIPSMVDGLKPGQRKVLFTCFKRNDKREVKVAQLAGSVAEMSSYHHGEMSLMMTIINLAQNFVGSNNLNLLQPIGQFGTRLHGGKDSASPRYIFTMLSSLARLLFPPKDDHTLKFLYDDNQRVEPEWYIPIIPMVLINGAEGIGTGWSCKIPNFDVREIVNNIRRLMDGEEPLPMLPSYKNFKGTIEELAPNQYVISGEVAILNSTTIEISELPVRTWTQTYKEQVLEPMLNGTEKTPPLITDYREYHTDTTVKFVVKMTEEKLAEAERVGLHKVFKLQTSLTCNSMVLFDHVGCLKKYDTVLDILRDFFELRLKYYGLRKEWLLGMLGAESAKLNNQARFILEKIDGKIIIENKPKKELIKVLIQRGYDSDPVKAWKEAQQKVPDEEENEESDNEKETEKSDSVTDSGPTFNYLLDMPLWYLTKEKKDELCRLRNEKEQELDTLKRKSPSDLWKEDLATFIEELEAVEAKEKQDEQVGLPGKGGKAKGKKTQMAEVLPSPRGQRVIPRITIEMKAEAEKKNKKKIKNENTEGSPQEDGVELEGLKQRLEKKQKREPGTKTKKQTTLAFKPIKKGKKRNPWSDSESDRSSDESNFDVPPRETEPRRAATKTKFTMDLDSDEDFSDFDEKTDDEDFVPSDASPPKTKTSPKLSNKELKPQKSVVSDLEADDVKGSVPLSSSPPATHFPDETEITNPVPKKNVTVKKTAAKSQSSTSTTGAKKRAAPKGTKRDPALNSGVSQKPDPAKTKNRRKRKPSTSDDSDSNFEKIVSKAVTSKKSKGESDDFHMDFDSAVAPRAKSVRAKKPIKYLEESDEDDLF

Turning to `N[C@@H](CCC(=O)N[C@@H](CSC1C=C(O)C(=O)C1)C(=O)NCC(=O)O)C(=O)O` (stereo partly drawn) [GM, 2-hydroxy-4-glutathion-S-yl-2-cyclopenten-1-one], the “sensitivity of E7-introduced cells compared with control cells (in words)” value in the experiment with NIH 3T3/E7-2 (5 μM) is recorded as “high sensitivity to GM as compared with the control cells”. Further, the “Numbers of Colonies (Mean Value ± SD)” value with NIH 3T3/E7-2 (5 μM GM, nine days, control 67.3 ± 3.2) was found to be 13.3 ± 3.2. The “concentration at which change of DNA to relaxation type was partially or completely inhibited” value at topoisomerase II is no less than 10 µM. Besides, the “Inhibiting Activity” value on topoisomerase II (5 μM) is reported as “-”; on topoisomerase II (10 μM), “+”; on topoisomerase II (20 μM), “++”; at topoisomerase II (50 μM), “++”; at topoisomerase II (100 μM), “+++”; at topoisomerase II (250 μM), “+++”. Moreover, the “IgE Titer” value with antigen-specific IgE (3 mg/kg/day i.p.) stood at 32; in the experiment on antigen-specific IgE (30 mg/kg/day i.p.), 8. Further, the “inhibiting activity to IgE production (in words)” value with antigen-specific IgE (rat, in vivo) is “inhibited by administration of GM in a dose-dependent manner”.
